In patent publication US12558369B2, “Compositions and methods of treating Fanconi Anemia” (Dana-Farber Cancer Institute, Inc., priority 2015, dated 2026):
Entries after “also recorded” stand apart in the source; their conditions may differ.

Tests used:
Fancd2−/− stromal cells = experiment: Immunoblot of phosphorylated Erk1/2 in bone marrow stromal cells; type: cell-based, mouse
Experimental: FIG. 2. Characterization of FA murine primary bone marrow stromal fibroblast. • A) Survival of Fancd2+/+ or Fancd2−/− stromal cells in the presence of MMC. Data are shown in triplicate. […] (Left panel) Active mouse Tgfβ1 serum levels in the culture supernatant of Fancd2+/+ or Fancd2−/− stromal cells were evaluated by ELISA. (Right panel) qRT-PCR analysis of Tgfb1 mRNA expression. Data are shown the average of three independent experiments. Error bars represent s.e.m. • C) Immunoblots of phosphorylated Erk1/2 in stromal cells treated with Tgfβ for the indicated time.
FIG. 3. […] Error bars represent s.e.m.
Human FA cells EUFA316 were grown in RPMI1640 (Life Technologies) supplemented with 10% fetal calf serum. Fancd2^+/+ and Fancd2^−/− bone marrow stromal cells were established by culturing whole bone marrow in DMEM with 10% FBS. Fancd2^−/− stromal cells were complemented with human FANCD2 by retroviral transduction of FANCD2 cDNA in pMMP-PURO vector, followed by selection in puromycin. Whole cell extracts were prepared by lysing cells in radioimmunoprecipitation assay buffer (50 mmol/L Tris, pH 7.3, 150 mmol/L NaCl, 1 mmol/L EDTA, 1% Triton X-100, 0.5% Na-deoxycholate, and 0.1% SDS) with complete protease inhibitor, NaVO4, and NaF.

U2OS cells [1] = experiment: Immunoblot of DNA-PK phosphorylation; type: cell-based, human
Fancd2−/− HSPCs = experiment: Clonogenic assay of HSPCs in methylcellulose; type: cell-based, mouse; conditions: TGF-β1 1 ng/mL, Ab 10 μg/mL or SD208 10 μM; colonies after 7-10 days
Experimental: (A) Expression of phospho-Smad2/3 proteins in HSPCs from WT and Fancd2−/− mice as detected by flow cytometric analysis. (B) Quantification of mean fluorescence intensity (MFI) of phospho-Smad2/3 staining by flow cytometric analysis shown in (A) in HSPCs from WT and Fancd2−/− mice. (C) Fancd2−/− HSPCs are more sensitive to TGF-β1 than WT HSPCs. Sorted Lin− cells from WT or Fancd2−/− mice were exposed to TGF-β1. After 5 days in culture, LSK cells were analyzed by flow cytometry and quantified. Data are shown after normalizing to untreated WT group. […] Sorted Lin− cells from WT and Fancd2−/− mice were exposed to TGF-β1 (1 ng/mL) with or without TGF-beta 1,2,3 Ab (10 μg/mL) or SD208 (10 μM), and viable cells were counted after 5 days in culture. Data shown are after normalizing to untreated WT group. Error bars represent mean±s.e.m. (F) Clonogenic assay of WT and Fancd2−/− HSPCs treated with TGF-β1, TGF-beta 1, 2, 3 Ab or SD208. […] Hematopoietic colonies were counted after 7-10 days in culture. […] (I) Representative FACS plots of LSK cells analyzed by flow cytometry for GFP expression after 5 days in vitro culture in stem cell culture medium. […] Luciferase activity was measured. (L) Binding of FANCD2 to SMAD1 promoter (region −2108 to −1950 bp) upon DNA damage as detected by ChIP assay using anti-FANCD2 antibody in corrected GM6914 (+FANCA) but not GM6914 (+Vector) fibroblast cells. […]

[2] = test system: primary HSPCs from bone marrow of FA patients; experiment: Colony forming assay of primary CD34+ bone marrow cells from FA patients; type: cell-based, human; conditions: methylcellulose, colonies after 10 days
Text: (§1) (A) Hierarchical clustering and heat-map of the expression of TGF-β pathway genes in human FA and non-FA bone marrow samples using gene set enrichment analysis. (B-F) Colony forming assays using primary CD34+ bone marrow cells from five FA patients. Cells were transduced with lentiviruses encoding shControl, shTP53 or shSMAD3 followed by selection for puromycin resistance and then plated in methylcellulose cultures or the cells were directly plated in methylcellulose cultures containing GC1008 for colony growth. The hematopoietic colonies were counted after 10 days in culture. (G-I) Colony forming assays using FA-like CD34+ cells from human cord blood. As shown in the schematic (G), FA-like CD34+ cells were generated by transducing human cord blood CD34+ cells with lentivirus encoding shFANCD2. […] Hematopoietic colonies were counted after 10-14 days in culture (I). (J) Colony forming assay of FA-like CD34+ cells with GC1008 treatment. Hematopoietic colonies were counted after 10-14 days in culture. […] Human cells were analyzed in the peripheral blood at 2 weeks post transplantation. […] Representative images (L) and quantification (M) of γH2AX foci in cord blood CD34+ cells transduced with lentivirus encoding shFANCD2 or shControl. […] Cells were then analyzed for γH2AX foci by immunofluorescence. Thirty to hundred cells with more than 5 foci were counted for each sample. […]

[3] = test system: FA-like CD34+ cells from human cord blood; experiment: Colony forming assay of FA-like CD34+ cells; type: cell-based; conditions: GC1008 10 μg/mL, colonies after 10-14 days
Text: as §1, with “blood.” for “blood. As shown in the schematic (G), FA-like CD34+ cells were generated by transducing human cord blood CD34+ cells with lentivirus encoding shFANCD2.”, “(J) Colony forming assay of FA-like CD34+ cells with GC1008 treatment.” left out
(§2) (Dataset: GSE16334). […] Cells were cultured in methylcellulose medium post MMC treatment (2 h at 100 ng/mL) and hematopoietic colonies were counted after 10 days in culture. […] Hematopoietic colonies were counted after 10-14 days in culture. […]

[4] = test system: FA-like CD34+ cells in NSG mice; experiment: In vivo xenograft assay of FA-like CD34+ cells; set-up: species or system mouse; conditions: 10 mg/kg, 3 doses per week for 2 weeks, peripheral blood at 2 and 8 weeks
Text: as §1, with “blood.” for “blood. As shown in the schematic (G), FA-like CD34+ cells were generated by transducing human cord blood CD34+ cells with lentivirus encoding shFANCD2.”, “(J) Colony forming assay of FA-like CD34+ cells with GC1008 treatment.” left out
as §2

FA-like HSPCs = experiment: γH2AX and 53BP1 foci after MMC in FA-like HSPCs; type: cell-based, human
Text: as §1, with “(J) Colony forming assay of FA-like CD34+ cells with GC1008 treatment.” left out
HSPCs. […] Representative images (F) and quantification (G) of 53BP1 foci are shown.

[5] = test system: EUFA316 (FA-G fibroblasts); experiment: MMC sensitivity survival assay of FA cells with TGFβ pathway inhibitors; type: cell-based, human
Experimental: FIG. 1. TGFβ pathway disruption enhances FA cellular growth. • A) RIGER P value analysis to identify top candidate genes. • B) Clonogenic survival of GM6914 (FA-A fibroblasts) and FANCA-corrected GM6914 cells after shRNA mediated knockdown of SMAD3. Cells were treated with increasing doses of MMC and plated for 10-12 days. The average of two experiments is presented; error bars represent s.e.m.
(§3) For survival assays, cells were seeded at a density of 1×10^3 cells per well in 96-well plates. After 72 hours of culture in indicated concentrations of MMC or post exposure of acetaldehyde, viability was assessed using CellTiterGlo reagent (Promega). In order to assess clonogenicity, cells were seeded at a low density (500-1000 cells per well) in 6-well plates and allowed to form colonies. The cells were then fixed in methanol/20% acetic acid and stained with 1% crystal violet. Colony formation was assessed by solubilizing crystal violet stain with methanol and quantifying UV absorbance for each condition.
as §3, with “3-6 days” for “72 hours”, “Colonies were counted after” for “Colony formation was assessed by solubilizing”, “staining.” for “stain with methanol and quantifying UV absorbance for each condition.”

U2OS cells [6] = experiment: NHEJ reporter assay; type: cell-based, human; conditions: template reporter assay
Fancd2-deficient mice = experiment: pIpC physiological stress-induced bone marrow failure, LT-HSC DNA damage; type: in vivo, mouse
Text: FIG. 13. […] Mice were pretreated in vivo with either no Tgfβ inhibitor, the neutralizing antibody to Tgfβ 1, 2, 3, or the Tgfβ receptor kinase inhibitor, Galunisertib.

[7] = test system: Fancd2−/− BM Stromal cells; experiment: Colony forming capacity of bone marrow stromal cells; type: cell-based, mouse; conditions: 1 μM Mek-i
Experimental: FIG. 3. […] Fancd2+/+ stromal cells shown as a control. • B) Colony forming capacity of Fancd2−/− BM Stromal cells is improved by treatment with 1 μM Mek-i. • C) Immunoblot analysis showing deletion of Tgfbr1, Smad3 and p53 in murine Fancd2+/+ and Fancd2−/− stromal cells • D) Survival of Fancd2−/− stromal cells with deletion of Tgfbr1, Smad3 or p53 in presence of MMC. Error bars represent s.e.m.
FIG. 9. […] Representative image of colonies of Fancd2+/+ and Fancd2−/− cells incubated with or without 1 μM Mek inhibitor.
as §3

[8] = mice pretreated in vivo, LT-HSCs isolated

Compound: TGF-β1: recombinant TGFβ1 cytokine (human from ProPeptide, mouse from R&D)
- pErk1/2 after mTGFβ1 exposure (Fancd2−/− stromal cells; FA stromal cells): further activated pErk1/2
- phosphorylation of DNA-PK (U2OS cells [1]): activated phosphorylation of DNA-PK
- clonogenic ability of Fancd2−/− HSPCs (Fancd2−/− HSPCs): inhibited

Compound: GC1008: anti-human TGF-β neutralizing antibody
- clonogenic defects of primary HSPCs from FA patients [2]: rescued the clonogenic defects
- clonogenic capacity of FA-like HSPCs [3]: markedly rescuing the clonogenic capacity
- engraftment of primary FA-like CD34+ cells [4]: enhanced the engraftment
- number of FA-like HSPCs with 53BP1 foci (FA-like HSPCs; MMC 100 ng/mL 2 h, 24 h recovery): significantly reduced
- number of FA-like HSPCs with γH2AX foci (FA-like HSPCs; MMC 100 ng/ml 2 hrs, 24 hrs recovery): significantly reduced

Compound: COc1cc2c(cc1OC)CN(C(=O)/C=C/c1c(-c3ccccc3)n(C)c3ncccc13)CC2 [SIS3]
- FA cells survival in the presence of MMC ([5]; FA cell lines with inhibitor): improved FA cells survival in the presence of MMC
- cytotoxicity of corrected FA cells ([5]; corrected FA cells): do not significantly alter cytotoxicity of corrected FA cells
- NHEJ activity (U2OS cells [6]): decreased NHEJ
- phosphorylation of DNA-PK (U2OS cells [1]): blocks phosphorylation of DNA-PK

Compound: Cc1cccc(-c2nn3c(c2-c2ccnc4ccc(C(N)=O)cc24)CCC3)n1 [Galunisertib]
- pIpC-induced DNA damage in LT-HSCs, comet assay (Fancd2-deficient mice; [8]): rescued the pIpC-induced DNA damage
- pIpC-induced DNA damage, gamma H2AX foci (Fancd2-deficient mice; [8]): rescued the pIpC-induced DNA damage
- physiological stress-induced bone marrow failure (Fancd2-deficient mice; mice, pIpC, pretreated in vivo): rescues physiological stress-induced bone marrow failure

Compound: O=C(NOC[C@H](O)CO)c1ccc(F)c(F)c1Nc1ccc(I)cc1F [PD0325901]
- Erk1/2 phosphorylation (Fancd2−/− stromal cells; mouse stromal cells exposed to MEK inhibitor): inhibition of Erk1/2 phosphorylation; also recorded: reduces p-Erk1/2 expression
- clonogenicity / colony forming capacity of Fancd2−/− stromal cells [7]: significantly increased the clonogenicity
- clonogenicity / colony forming capacity of Fancd2−/− stromal cells ([7]; listed as Mek-i): improved
